Assay [1] concerns the target Wee1-like protein kinase (Homo sapiens) (UniProt P30291). To be noted: at 10 µM.
Assay [2] has as its target T1, Calcium/calmodulin-dependent protein kinase type IV (Homo sapiens) (UniProt Q16566).
T1 sequence (whole entry): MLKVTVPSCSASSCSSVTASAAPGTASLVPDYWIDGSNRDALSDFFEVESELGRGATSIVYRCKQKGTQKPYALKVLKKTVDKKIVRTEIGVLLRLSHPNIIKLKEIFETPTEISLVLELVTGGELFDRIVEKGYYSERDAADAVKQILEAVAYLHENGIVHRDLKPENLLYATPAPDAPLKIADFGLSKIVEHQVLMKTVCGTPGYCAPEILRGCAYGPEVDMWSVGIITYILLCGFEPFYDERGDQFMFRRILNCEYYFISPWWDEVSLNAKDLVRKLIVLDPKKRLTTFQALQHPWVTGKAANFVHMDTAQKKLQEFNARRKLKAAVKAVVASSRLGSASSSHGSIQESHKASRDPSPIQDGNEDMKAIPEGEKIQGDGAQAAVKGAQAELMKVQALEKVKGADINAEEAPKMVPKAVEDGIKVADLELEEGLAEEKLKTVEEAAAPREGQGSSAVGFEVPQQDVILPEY
The settings on record: at 10 µM.

Assay [3] deals with Serine/threonine-protein kinase Chk2 (Homo sapiens) (UniProt O96017). The assay is described as follows: Selectivity interaction (Millipore kinase profiler) EUB0000124b CHEK2. To be noted: at 10 µM.
Assay [4] has as its target T2, Mitogen-activated protein kinase kinase kinase 19 (Homo sapiens) (UniProt Q56UN5).
T2 sequence (whole entry): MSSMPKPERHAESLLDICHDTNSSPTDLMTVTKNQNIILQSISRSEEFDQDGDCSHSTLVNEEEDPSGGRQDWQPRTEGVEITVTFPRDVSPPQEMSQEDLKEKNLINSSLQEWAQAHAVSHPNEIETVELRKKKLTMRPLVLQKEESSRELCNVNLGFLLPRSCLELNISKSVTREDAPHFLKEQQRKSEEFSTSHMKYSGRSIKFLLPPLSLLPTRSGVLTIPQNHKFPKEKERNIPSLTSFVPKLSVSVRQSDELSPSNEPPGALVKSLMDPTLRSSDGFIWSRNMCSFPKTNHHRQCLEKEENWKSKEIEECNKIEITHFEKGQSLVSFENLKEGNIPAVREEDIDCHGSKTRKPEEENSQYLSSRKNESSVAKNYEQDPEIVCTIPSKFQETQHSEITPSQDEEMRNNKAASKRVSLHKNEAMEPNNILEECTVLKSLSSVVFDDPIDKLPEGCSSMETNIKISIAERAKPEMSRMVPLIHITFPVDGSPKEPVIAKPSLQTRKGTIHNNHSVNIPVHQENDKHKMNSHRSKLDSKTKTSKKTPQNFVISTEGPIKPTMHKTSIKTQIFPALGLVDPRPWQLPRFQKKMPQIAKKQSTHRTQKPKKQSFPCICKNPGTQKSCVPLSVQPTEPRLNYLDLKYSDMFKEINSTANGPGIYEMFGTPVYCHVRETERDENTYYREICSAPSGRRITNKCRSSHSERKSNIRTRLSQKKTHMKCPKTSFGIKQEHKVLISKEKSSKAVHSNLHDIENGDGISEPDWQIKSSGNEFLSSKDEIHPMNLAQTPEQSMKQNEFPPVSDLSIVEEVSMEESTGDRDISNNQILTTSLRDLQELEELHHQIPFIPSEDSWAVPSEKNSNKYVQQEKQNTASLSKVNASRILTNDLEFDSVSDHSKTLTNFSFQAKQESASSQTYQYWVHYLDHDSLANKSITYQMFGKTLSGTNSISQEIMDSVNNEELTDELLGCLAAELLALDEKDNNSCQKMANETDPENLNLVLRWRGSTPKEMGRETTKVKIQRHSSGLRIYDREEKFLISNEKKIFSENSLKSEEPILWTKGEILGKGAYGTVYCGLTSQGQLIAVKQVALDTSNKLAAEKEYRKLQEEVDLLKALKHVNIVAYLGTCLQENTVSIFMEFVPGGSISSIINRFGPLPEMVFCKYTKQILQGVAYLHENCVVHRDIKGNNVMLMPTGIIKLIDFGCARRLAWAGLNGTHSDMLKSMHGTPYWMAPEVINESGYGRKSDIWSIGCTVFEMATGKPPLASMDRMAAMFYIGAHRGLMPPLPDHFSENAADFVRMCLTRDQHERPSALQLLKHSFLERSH
The assay is described as follows: Selectivity interaction (KinomeScan (DiscoverX)) EUB0000607a MAP3K19. The settings on record: at 10 µM.

Assay [5] addresses Tyrosine-protein kinase JAK1 (Homo sapiens, UniProt P23458). The assay is described as follows: Selectivity interaction (ActivX KiNativ screen (kinase selectivity in THP-1 cell lysates)) EUB0000639a JAK1. Format: subcellular. To be noted: lysate, at 0.01 µM.
For assay [6], the target named is Serine/threonine-protein kinase 24 (Homo sapiens) (UniProt Q9Y6E0). Put plainly: Selectivity interaction (ActivX KiNativ screen (kinase selectivity in THP-1 cell lysates)) EUB0000639a STK24. Format: subcellular. The settings on record: lysate, at 0.01 µM.
Assay [7] addresses T3, Serine/threonine-protein kinase greatwall (Homo sapiens) (UniProt Q96GX5).
T3 sequence (whole entry): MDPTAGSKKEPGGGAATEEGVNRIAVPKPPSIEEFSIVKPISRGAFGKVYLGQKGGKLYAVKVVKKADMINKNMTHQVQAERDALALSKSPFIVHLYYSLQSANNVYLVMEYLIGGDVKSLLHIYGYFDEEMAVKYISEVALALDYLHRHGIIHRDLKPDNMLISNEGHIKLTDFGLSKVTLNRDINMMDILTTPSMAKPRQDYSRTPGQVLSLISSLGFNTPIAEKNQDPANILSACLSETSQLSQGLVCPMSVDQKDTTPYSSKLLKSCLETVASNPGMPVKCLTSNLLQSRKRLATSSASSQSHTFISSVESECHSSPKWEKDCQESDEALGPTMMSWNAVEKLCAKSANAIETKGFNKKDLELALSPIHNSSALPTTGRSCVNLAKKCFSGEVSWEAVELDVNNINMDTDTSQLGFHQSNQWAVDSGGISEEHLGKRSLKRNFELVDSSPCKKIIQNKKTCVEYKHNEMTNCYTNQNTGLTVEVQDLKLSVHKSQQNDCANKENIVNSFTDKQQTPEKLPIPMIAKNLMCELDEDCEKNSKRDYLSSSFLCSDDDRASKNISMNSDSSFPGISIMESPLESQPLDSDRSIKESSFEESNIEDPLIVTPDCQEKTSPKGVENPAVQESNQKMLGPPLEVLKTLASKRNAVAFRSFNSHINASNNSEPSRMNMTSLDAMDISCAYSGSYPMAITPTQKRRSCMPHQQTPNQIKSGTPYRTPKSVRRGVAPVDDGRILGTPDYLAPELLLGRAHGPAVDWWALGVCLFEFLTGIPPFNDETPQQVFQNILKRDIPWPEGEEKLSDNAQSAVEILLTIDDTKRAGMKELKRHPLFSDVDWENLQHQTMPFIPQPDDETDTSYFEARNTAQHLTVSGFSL
Put plainly: Selectivity interaction (ActivX KiNativ screen (kinase selectivity in THP-1 cell lysates)) EUB0000639a MASTL. Format: subcellular. To be noted: lysate, at 0.2 µM.

Serine/threonine-protein kinase Chk2 (Homo sapiens), sequence (O96017 whole entry): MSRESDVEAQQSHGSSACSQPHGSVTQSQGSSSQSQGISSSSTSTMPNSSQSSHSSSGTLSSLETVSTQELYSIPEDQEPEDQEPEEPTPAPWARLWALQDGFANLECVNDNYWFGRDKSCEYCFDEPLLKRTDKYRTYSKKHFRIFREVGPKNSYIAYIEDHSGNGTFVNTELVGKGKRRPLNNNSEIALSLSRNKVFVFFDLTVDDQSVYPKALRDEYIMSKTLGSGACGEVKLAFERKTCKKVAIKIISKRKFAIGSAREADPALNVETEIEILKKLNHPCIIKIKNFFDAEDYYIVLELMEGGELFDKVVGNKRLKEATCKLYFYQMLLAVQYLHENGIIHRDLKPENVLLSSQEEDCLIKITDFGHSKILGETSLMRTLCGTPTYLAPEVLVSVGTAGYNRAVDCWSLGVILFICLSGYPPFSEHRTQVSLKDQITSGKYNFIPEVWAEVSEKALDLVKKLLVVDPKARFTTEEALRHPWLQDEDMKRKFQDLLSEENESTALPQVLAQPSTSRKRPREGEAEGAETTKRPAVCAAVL
Wee1-like protein kinase (Homo sapiens), sequence (P30291 whole entry, looked up): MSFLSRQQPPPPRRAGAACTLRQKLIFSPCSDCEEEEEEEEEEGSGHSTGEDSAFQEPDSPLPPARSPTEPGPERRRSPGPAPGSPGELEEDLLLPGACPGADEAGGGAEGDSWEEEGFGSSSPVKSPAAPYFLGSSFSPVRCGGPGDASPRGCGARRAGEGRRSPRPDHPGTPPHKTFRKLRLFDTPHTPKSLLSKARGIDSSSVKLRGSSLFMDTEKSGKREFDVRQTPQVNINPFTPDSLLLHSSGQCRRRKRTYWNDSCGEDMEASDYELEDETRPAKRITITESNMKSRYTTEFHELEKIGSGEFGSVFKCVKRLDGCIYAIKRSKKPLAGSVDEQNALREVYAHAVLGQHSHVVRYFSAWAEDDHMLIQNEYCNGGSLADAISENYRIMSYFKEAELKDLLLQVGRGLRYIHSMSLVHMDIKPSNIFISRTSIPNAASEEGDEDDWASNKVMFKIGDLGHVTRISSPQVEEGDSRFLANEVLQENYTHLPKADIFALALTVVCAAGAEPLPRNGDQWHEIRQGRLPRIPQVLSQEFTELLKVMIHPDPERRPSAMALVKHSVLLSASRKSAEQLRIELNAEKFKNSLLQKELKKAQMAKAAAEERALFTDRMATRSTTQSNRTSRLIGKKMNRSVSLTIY
Tyrosine-protein kinase JAK1, sequence (P23458 whole entry): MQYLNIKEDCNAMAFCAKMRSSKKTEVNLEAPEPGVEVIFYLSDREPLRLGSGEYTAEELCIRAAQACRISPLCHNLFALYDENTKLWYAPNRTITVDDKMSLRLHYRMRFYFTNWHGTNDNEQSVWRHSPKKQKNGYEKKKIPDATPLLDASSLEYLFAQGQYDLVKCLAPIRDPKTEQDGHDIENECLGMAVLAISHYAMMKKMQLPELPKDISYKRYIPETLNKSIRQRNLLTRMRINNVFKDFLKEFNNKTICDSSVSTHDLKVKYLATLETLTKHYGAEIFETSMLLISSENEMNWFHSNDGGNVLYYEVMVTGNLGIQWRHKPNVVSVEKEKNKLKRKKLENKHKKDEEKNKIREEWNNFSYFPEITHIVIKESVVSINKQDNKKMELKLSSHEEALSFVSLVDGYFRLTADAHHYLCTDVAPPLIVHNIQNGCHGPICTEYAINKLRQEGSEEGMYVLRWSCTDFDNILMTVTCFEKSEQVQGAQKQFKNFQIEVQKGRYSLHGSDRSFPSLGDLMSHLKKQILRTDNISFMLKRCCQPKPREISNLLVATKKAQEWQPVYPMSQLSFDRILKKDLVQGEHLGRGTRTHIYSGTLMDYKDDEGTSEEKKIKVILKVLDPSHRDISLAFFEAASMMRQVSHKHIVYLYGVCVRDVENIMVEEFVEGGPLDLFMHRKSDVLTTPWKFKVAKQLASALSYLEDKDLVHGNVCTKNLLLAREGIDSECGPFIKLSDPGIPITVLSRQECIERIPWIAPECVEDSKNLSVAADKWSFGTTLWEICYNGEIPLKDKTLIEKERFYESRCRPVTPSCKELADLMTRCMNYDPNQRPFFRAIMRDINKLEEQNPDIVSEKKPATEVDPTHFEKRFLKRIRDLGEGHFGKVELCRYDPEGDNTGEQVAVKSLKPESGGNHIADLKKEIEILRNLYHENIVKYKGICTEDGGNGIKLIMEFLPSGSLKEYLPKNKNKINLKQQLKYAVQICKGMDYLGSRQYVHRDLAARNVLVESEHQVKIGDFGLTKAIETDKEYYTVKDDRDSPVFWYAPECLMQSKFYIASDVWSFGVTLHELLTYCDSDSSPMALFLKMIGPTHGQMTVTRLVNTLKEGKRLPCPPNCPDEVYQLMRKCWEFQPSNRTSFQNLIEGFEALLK
Serine/threonine-protein kinase 24 (Homo sapiens), sequence (Q9Y6E0 whole entry, looked up): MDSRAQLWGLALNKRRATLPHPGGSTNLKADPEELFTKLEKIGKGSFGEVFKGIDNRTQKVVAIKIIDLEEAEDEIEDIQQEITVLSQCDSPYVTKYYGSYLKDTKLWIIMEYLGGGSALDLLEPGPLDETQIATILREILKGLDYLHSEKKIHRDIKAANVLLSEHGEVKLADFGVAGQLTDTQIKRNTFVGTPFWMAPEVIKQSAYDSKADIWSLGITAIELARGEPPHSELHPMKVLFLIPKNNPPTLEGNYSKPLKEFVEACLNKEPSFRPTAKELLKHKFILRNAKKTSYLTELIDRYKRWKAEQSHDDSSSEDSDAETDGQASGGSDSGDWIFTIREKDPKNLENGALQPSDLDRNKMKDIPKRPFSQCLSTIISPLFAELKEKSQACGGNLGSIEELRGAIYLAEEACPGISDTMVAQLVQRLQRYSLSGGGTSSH

For the molecule `Cc1cc([C@@H](C)Nc2ccccc2C(=O)O)c2nc(N3CCOCC3)cc(=O)n2c1` [AZD-6482], the % of control in assay [1] and in assay [2] was 100% each time.
In assay [3], `CC(=O)Nc1cccc(-n2c(=O)n(C3CC3)c(=O)c3c(Nc4ccc(I)cc4F)n(C)c(=O)c(C)c32)c1` showed a % of control of 98%.
`CNC(=O)Nc1ccc(-c2nc(N3CC4CCC(C3)O4)c3cnn(C4CCC5(CC4)OCCO5)c3n2)cc1`: the % of control in assay [4] turned out to be 100%.
In the case of `CC[C@@H]1[C@H](F)C(=O)N[C@@H]1COc1nccc2cc(C(N)=O)c(OC)cc12` [ZIMLOVISERTIB], the % of inhibition is -2.1% in assay [5], 3.8% in assay [6] and 16.4% in assay [7].

(Values after ChEMBL document CHEMBL5465560, “Selectivity Literature for EUbOPEN Chemogenomic Library” (2024).)
